# Results: US20200206233A1 (INTEGRAL BIOSCIENCES PRIVATE LIMITED, priority 2018, published 2020)
# Legend:
# IDH1 mutant (R132H) = target: T1, IDH1 mutant (R132H) (Homo sapiens, UniProt O75874, R132H); test: Mutant IDH1-R132H Fluorescence Assay (Resazurin based); assay type: biochemical; conditions: 10 nM IDH1 R132H, 4 mM α-ketoglutarate, NADPH, 1.5 h at room temperature
# T1 construct: purchased BPS Bioscience 71099-2
# In short: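 Recombinant IDH1 R132H (10 nM) was run with α-ketoglutarate (4 mM) and NADPH ([…]) for 1.5 h at room temperature in Tris pH buffer with MgCl2, BSA and mercaptoethanol. Remaining NADPH was detected via diaphorase/resazurin fluorescence (ex 540/em 590 nm). IC50 came from a 4-parameter logistic fit.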
# IDH1-WT = target: T2, IDH1-WT (Homo sapiens, UniProt O75874); test: IDH1-WT Fluorescence Assay (Resazurin based); assay type: biochemical; conditions: 1 nM IDH1-WT, 200 μM isocitrate, 15 μM NADP+, 30 min at room temperature
# T2 construct: purchased BPS Bioscience 71075-2
# T2 sequence (O75874 whole entry): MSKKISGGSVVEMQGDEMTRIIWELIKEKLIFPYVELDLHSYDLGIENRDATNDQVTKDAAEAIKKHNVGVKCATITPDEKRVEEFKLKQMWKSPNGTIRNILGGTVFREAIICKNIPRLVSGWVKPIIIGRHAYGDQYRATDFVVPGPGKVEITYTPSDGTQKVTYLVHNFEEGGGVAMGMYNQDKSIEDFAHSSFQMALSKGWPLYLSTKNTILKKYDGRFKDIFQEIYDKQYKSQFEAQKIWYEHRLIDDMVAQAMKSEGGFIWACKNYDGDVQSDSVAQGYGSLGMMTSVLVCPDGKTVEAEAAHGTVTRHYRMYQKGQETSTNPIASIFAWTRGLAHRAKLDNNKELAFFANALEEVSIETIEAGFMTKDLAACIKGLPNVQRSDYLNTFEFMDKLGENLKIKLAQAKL
# Experimental: IC50 values of compounds against IDH1-WT was determined by Resazurin based Fluorescence assay. Assays were performed in Buffer (50 mM Tris HCl, 10 mM MgCl2, 0.03% BSA, 2 mM ß-mercaptoethanol) where total reaction volume was 25 μL in low-volume 96-well plates. Serially diluted compounds (3-fold) in DMSO (0.5% in final reaction) were incubated with cocktail of isocitrate (200 μM; Cat # I1252-1G, Sigma), NADP^+ (15 μM; Cat # N0505-500MG, Sigma) and buffer for 5 min, following addition of IDH1-WT enzyme (1 nM; Cat #71075-2, BPS Bioscience) and incubated in dark at room temperature for 30 min. After that, 12.5 μL detection solution containing Resazurin (60 μM; Cat #62758-13-8, Sigma) and Diaphorase (40 μg/ml; Cat # D2197-300UN, Sigma) in buffer was added and incubated for 15 min. Readings were taken using a Synergy Neo Plate reader (BioTek, Winooski) at single excitation of 540 nm and emission at 590 nm respectively.
# The % (percent) activity of test samples was calculated as (Sample−Min)×100/(Max−Min). [Max: DMSO control, complete reaction with enzyme with DMSO and Min: No enzyme with DMSO]. Percent inhibition (100−% activity) was fitted to the “four-parameter logistic model” in XLfit for determination of IC50 values.
# IDH2 mutant (R140Q) = target: T3, IDH2 mutant (R140Q) (Homo sapiens, UniProt P48735, R140Q); test: Mutant IDH2-R140Q Fluorescence Assay (Resazurin based); assay type: biochemical; conditions: 5 nM IDH2 R140Q, 4 hr pre-incubation, 1 mM α-ketoglutarate, 5 μM NADPH, 2 h
# T3 construct: purchased BPS Bioscience 71100-2
# T3 sequence (P48735 40-452 R140Q): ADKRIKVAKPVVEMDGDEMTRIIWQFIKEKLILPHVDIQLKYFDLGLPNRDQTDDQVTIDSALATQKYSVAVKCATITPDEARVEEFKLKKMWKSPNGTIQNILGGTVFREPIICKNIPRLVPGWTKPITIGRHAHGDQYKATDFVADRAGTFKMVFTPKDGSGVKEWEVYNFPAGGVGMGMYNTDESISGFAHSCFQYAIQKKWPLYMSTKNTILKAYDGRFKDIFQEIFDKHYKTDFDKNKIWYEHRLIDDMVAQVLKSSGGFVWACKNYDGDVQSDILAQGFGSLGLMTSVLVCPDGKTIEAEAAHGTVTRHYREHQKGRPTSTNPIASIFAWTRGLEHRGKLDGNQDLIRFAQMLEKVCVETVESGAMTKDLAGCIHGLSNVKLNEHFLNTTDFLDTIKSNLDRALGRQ
# Experimental: IC50 values of compounds against IDH2 mutant (R140Q) were determined by Resazurin based Fluorescence assay. Assay was performed in Buffer (25 mM Tris HCl, 150 mM NaCl, 10 mM MgCl2, 0.03% BSA, 2 mM 1-mercaptoethanol) where total reaction volume was 12.5 μL in low-volume 384-well plates (Cat #4511, Corning). Serially diluted compounds (3-fold) were pre-incubated with IDH2 R140Q mutant enzyme (5 nM; Cat #71100-2, BPS Bioscience) for 4 hr at RT (25° C.) followed by addition of cocktail of α-ketoglutarate (1 mM; Cat #75892-25G, Sigma), and NADPH (5 μM; Cat # N1630-100MG, Sigma) with buffer in dark at room temperature for 2 h. After 2 h incubation, 6.25 μL detection solution containing Resazurin (30 μM; (Cat #62758-13-8, Sigma) and Diaphorase (40 ug/ml; Cat # D2197-300UN, Sigma) in buffer was added and incubated for 15 min. Readings were taken in a Synergy Neo Plate reader (BioTek, Winooski) at single excitation of 540 nm and emission at 590 nm respectively.
# (§1) The % activity of test samples was calculated as (Sample−Min)×100/(Max−Min). [Max: DMSO control, complete reaction with enzyme with DMSO and Min: No enzyme with DMSO]. Percent inhibition (100−% activity) was fitted to the “four-parameter logistic model” in XLfit for determination of IC50 values.
# [1] = target: T4, mutant IDH1 (R132C) HT1080 cells (Homo sapiens, UniProt O75874, R132C); test: Cellular 2-HG assay using mutant IDH1 (R132C) HT1080 cells; assay type: cell-based; conditions: 48 h treatment, 0.003 to 3 μM, 2-HG in cell culture media
# T4 construct: host or cells: HT1080
# T4 sequence (O75874 2-414 R132C limits assumed): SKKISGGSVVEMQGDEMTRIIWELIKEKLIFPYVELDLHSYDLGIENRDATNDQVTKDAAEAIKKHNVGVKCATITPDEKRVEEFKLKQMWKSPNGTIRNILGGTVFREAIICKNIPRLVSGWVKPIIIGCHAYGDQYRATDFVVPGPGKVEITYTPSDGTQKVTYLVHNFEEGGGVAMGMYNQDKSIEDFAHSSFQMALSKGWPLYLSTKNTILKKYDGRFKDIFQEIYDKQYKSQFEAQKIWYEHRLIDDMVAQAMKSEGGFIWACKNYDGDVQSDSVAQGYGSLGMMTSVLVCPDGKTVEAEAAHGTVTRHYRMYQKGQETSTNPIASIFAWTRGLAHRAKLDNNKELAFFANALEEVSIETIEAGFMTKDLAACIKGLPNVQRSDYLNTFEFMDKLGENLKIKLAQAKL
# Experimental: HT1080 (ATCC® CCL-121™) cells were plated in a 12 well plate (Nunc™ Cell-Culture Treated Multidish; Cat #150628) at a cell density of 5×10^4 cells/well. Cells were then treated with various concentrations of test/reference compounds (ranging from 0.003 to 3 μM) or vehicle for 48 h under cell culture conditions (in CO2 incubator, 5% CO2, 37° C.). Metabolites were extracted from cell culture media by precipitation method and IC50 values of compounds were determined by Resazurin based Fluorescence assay. Assay buffer contained 100 mM HEPES pH 8.0, 100 μM NAD^+ (Sigma; Cat # N1630-100MG), […] HGDH, 5 μM resazurin (Cat #62758-13-8, Sigma) and 0.01 U/ml diaphorase (Cat # D2197-300UN, Sigma). Total assay volume was 100 μl. 75 μl of assay buffer was added to 25 μl sample volume (supernatant) and incubated at RT in the dark for 30 min in black 96-well plates (Thermo Scientific). Fluorometric detection was done using a Synergy Neo Plate reader (BioTek, Winooski) at single excitation of 540 nm and emission at 590 nm respectively).
# as §1
# T1 sequence (O75874 whole entry R132H): as the sequence (O75874 whole entry) above, with R132H counted along it
IC50 (IDH1 mutant (R132H)),IC50 (IDH1-WT),IC50 (IDH2 mutant (R140Q)),IC50 [1],Structure (SMILES)
227 nM,> 50 µM,> 50 µM,36 nM,"Cc1nc(N[C@@H](C)c2ccc(Oc3ccccc3)cc2)nc(N2C(=O)OC[C@@H]2[C@H](C)F)n1 [Compound 1.64, (R)-4-((S)-1-fluoroethyl)-3-(4-methyl-6-((S)-1-(4-phenoxyphenyl)ethylamino)-1,3,5-triazin-2-yl)oxazolidin-2-one]"
84 nM,> 50 µM,> 50 µM,556 nM,"CC[C@H]1COC(=O)N1c1nc(C)nc(N[C@@H](C)c2cc3cc(Cl)c(OC)cc3[nH]c2=O)n1 [Compound 1.42, (S)-3-(4-((S)-1-(6-chloro-7-methoxy-2-oxo-1,2-dihydroquinolin-3-yl)ethylamino)-6-methyl-1,3,5-triazin-2-yl)-4-ethyloxazolidin-2-one]"
178 nM,> 50 µM,> 50 µM,271 nM,"Cc1nc(N[C@@H](C)c2cc3cc(Cl)ccc3[nH]c2=O)nc(N2C(=O)OC[C@@H]2[C@H](C)F)n1 [Compound 1.59, (R)-3-(4-((S)-1-(6-chloro-2-oxo-1,2-dihydroquinolin-3-yl)ethylamino)-6-methyl-1,3,5-triazin-2-yl)-4-((S)-1-fluoroethyl) oxazolidin-2-one]"
209 nM,> 50 µM,> 50 µM,168 nM,"CC[C@H]1COC(=O)N1c1nc(C)nc(N[C@@H](C)c2ccc(Oc3ccccc3)cc2)n1 [Compound 1.44, (S)-4-ethyl-3-(4-methyl-6-((S)-1-(4-phenoxyphenyl)ethylamino)-1,3,5-triazin-2-yl)oxazolidin-2-one]"
75 nM,> 50 µM,> 50 µM,94 nM,"CC[C@H]1COC(=O)N1c1nc(C)nc(N[C@@H](C)c2cc3cc(Cl)c(OC(C)C)cc3[nH]c2=O)n1 [Compound 1.104, (S)-3-(4-((S)-1-(6-chloro-7-isopropoxy-2-oxo-1,2-dihydroquinolin-3-yl)ethylamino)-6-methyl-1,3,5-triazin-2-yl)-4-ethyloxazolidin-2-one]"
456 nM,> 50 µM,> 50 µM,413 nM,"CC[C@H]1COC(=O)N1c1nc(C)nc(N[C@@H](C)c2cn(-c3ccc(Cl)cc3)cn2)n1 [Compound 1.50, (S)-3-(4-((S)-1-(1-(4-chlorophenyl)-1H-imidazol-4-yl)ethylamino)-6-methyl-1,3,5-triazin-2-yl)-4-ethyloxazolidin-2-one]"
2870 nM,> 30 µM,> 50 µM,–,"CC(C)[C@H]1COC(=O)N1c1ncnc(N[C@@H](C)c2ccc(Cl)c(Cl)c2)n1 [Compound 1.7, (S)-3-(4-((S)-1-(3,4-dichlorophenyl)ethylamino)-1,3,5-triazin-2-yl)-4-isopropyloxazolidin-2-one]"
642 nM,> 30 µM,> 50 µM,–,"CC(C)[C@H]1COC(=O)N1c1ncnc(N[C@@H](C)c2ccc(Oc3ccccc3)cc2)n1 [Compound 1.9, (S)-4-isopropyl-3-(4-((S)-1-(4-phenoxyphenyl)ethylamino)-1,3,5-triazin-2-yl)oxazolidin-2-one]"
340 nM,> 50 µM,> 50 µM,–,"CC[C@H]1COC(=O)N1c1nc(C)nc(N[C@@H](C)c2ccc(Oc3ccc(C)cc3)cc2)n1 [Compound 1.83, (S)-4-ethyl-3-(4-methyl-6-((S)-1-(4-(p-tolyloxy)phenyl)ethylamino)-1,3,5-triazin-2-yl)oxazolidin-2-one]"
144 nM,> 50 µM,> 50 µM,634 nM,"CC[C@H]1COC(=O)N1c1nc(C)nc(N[C@@H](C)c2cc3cc(Cl)ccc3[nH]c2=O)n1 [Compound 1.38, (S)-3-(4-((S)-1-(6-chloro-2-oxo-1,2-dihydroquinolin-3-yl)ethylamino)-6-methyl-1,3,5-triazin-2-yl)-4-ethyloxazolidin-2-one]"
277 nM,> 50 µM,> 50 µM,–,"CC[C@H]1COC(=O)N1c1nc(C)nc(N[C@@H](C)c2ccc(Oc3ccccc3)c(C)c2)n1 [Compound 1.86, (S)-4-ethyl-3-(4-methyl-6-((S)-1-(3-methyl-4-phenoxyphenyl)ethylamino)-1,3,5-triazin-2-yl)oxazolidin-2-one]"
832 nM,> 50 µM,> 50 µM,–,"CC[C@H]1COC(=O)N1c1nc(C)nc(N[C@@H](C)c2ccc(Oc3ccccc3)cn2)n1 [Compound 1.75, (S)-4-ethyl-3-(4-methyl-6-((S)-1-(5-phenoxypyridin-2-yl)ethylamino)-1,3,5-triazin-2-yl)oxazolidin-2-one]"
586 nM,> 50 µM,> 50 µM,–,"CC[C@H]1COC(=O)N1c1nc(C)nc(N[C@@H](C)c2ccc(Oc3cccnc3C(F)(F)F)cc2)n1 [Compound 1.81, (S)-4-ethyl-3-(4-methyl-6-((S)-1-(4-(2-(trifluoromethyl)pyridin-3-yloxy)phenyl)ethylamino)-1,3,5-triazin-2-yl)oxazolidin-2-one]"
396 nM,> 50 µM,> 50 µM,–,"Cc1nc(N[C@@H](C)c2ccc(Oc3ccccc3)cc2)nc(N2C(=O)OC[C@@H]2C(C)C)n1 [Compound 1.27, (S)-4-isopropyl-3-(4-methyl-6-((S)-1-(4-phenoxyphenyl)ethylamino)-1,3,5-triazin-2-yl)oxazolidin-2-one]"
